From ChEMBL document CHEMBL1201862, “PubChem BioAssay data set” (2004) come the findings set out here.

One assay deals with T1, Caspase-3 (Homo sapiens, UniProt P42574).
T1 sequence (P42574 whole entry): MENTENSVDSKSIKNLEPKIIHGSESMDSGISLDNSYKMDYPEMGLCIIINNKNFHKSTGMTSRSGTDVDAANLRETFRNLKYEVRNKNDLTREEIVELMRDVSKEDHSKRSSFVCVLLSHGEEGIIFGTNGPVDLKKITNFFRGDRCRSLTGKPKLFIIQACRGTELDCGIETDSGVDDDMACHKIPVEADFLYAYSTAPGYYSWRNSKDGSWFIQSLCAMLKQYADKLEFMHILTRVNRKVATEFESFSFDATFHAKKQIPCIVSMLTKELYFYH
It counts as functional.

The target in assay [1] is T2, Sentrin-specific protease 7 (Homo sapiens, UniProt Q9BQF6).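 Note: Luminescence-based dose-response confirmation of ultra-high-throughput screening hits, measuring inhibition of SENP7.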
T2 sequence (Q9BQF6 whole entry): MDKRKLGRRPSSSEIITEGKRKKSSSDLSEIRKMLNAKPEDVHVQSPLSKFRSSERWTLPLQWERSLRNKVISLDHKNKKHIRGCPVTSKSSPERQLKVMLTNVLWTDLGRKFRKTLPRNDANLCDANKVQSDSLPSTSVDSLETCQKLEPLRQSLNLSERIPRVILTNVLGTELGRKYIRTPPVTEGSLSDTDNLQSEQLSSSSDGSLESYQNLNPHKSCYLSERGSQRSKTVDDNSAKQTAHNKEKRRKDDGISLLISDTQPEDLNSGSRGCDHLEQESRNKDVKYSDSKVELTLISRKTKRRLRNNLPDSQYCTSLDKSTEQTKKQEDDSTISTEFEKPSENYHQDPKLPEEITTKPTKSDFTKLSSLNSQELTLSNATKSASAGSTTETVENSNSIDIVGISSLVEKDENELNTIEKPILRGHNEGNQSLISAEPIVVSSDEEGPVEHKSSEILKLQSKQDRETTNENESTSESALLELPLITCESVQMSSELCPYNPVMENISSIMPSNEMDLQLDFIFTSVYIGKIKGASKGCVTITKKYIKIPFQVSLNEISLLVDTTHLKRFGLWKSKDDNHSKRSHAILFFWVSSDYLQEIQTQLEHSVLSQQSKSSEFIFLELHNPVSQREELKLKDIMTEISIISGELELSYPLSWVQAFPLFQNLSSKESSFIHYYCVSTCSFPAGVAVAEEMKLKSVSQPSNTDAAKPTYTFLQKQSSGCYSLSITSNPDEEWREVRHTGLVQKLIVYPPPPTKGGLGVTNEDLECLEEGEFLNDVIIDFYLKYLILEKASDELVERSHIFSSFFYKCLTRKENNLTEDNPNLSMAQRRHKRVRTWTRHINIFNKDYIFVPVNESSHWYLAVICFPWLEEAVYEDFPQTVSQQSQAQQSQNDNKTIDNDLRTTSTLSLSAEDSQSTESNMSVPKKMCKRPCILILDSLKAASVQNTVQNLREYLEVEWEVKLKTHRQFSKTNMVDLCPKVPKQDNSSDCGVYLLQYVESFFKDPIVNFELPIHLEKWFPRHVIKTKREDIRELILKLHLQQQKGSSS
It counts as functional.

Assay [2] has as its target T3, Sentrin-specific protease 8 (Homo sapiens, UniProt Q96LD8).
T3 sequence (Q96LD8 whole entry): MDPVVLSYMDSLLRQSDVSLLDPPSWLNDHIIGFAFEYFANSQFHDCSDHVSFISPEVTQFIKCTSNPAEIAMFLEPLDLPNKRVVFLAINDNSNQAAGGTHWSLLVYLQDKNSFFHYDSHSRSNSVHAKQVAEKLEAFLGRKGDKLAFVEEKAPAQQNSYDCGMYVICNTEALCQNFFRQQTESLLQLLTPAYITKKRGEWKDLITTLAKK
It counts as functional.

The target in assay [3] is T3, Sentrin-specific protease 8. It counts as functional. The source holds these as a separate data set.
Assay [4] concerns the target T4, Tyrosyl-DNA phosphodiesterase 2 (Homo sapiens, UniProt O95551).
T4 sequence (O95551 whole entry): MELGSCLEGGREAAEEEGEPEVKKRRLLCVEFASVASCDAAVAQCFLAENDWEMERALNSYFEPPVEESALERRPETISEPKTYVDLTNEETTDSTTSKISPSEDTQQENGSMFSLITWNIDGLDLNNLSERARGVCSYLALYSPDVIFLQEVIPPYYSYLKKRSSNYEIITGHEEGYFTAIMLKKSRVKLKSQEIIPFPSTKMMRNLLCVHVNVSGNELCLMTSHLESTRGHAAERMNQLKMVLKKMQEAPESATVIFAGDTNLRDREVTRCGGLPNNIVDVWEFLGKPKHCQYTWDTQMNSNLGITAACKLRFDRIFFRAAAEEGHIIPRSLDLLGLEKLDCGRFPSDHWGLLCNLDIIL
In words: potency against TDP2 phosphodiesterase activity – biochemical, epi absorbance, IC50, dose response (AID 743297).

The next assay has as its target Wee1-like protein kinase (Homo sapiens, UniProt P30291). In words: Dose Response Cell-based Assay for Inhibitors of Wee1 Degradation. [Related pubchem assays: 1410, 1321 ]. It counts as functional.
Another assay concerns INS1. In words: INS-1E survival protection against cytokine death – cell-based, luminescence, retest, dose response (AID 449756).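 Note: cell death triggered by IL-1 beta plus TNF-alpha plus IFN-gamma mixture; protective hits raise ATP signal compared with cytokine alone wells.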 It counts as functional. Conditions: Rattus norvegicus.
A short description of assay [5]: reduction of Shn3 3'UTR-driven luciferase in osteoblasts – cell-based, Clone20 osteoblasts, firefly luciferase, cherry-picked, dose response (AID 624132).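 Note: firefly luciferase luminescence from reporter carrying the Shn3 3'UTR in osteoblasts.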 It counts as functional.

For orientation: IC50 means the point on the concentration scale where inhibition reaches its midpoint. In general, EC50 refers to the concentration giving half of the maximal effect. A higher EC50 goes with lower potency in that assay. By AC50 is commonly meant the concentration giving half of the maximal activity seen.

Activity calls are given as the source filed them.

Chain of Wee1-like protein kinase (P30291 whole entry): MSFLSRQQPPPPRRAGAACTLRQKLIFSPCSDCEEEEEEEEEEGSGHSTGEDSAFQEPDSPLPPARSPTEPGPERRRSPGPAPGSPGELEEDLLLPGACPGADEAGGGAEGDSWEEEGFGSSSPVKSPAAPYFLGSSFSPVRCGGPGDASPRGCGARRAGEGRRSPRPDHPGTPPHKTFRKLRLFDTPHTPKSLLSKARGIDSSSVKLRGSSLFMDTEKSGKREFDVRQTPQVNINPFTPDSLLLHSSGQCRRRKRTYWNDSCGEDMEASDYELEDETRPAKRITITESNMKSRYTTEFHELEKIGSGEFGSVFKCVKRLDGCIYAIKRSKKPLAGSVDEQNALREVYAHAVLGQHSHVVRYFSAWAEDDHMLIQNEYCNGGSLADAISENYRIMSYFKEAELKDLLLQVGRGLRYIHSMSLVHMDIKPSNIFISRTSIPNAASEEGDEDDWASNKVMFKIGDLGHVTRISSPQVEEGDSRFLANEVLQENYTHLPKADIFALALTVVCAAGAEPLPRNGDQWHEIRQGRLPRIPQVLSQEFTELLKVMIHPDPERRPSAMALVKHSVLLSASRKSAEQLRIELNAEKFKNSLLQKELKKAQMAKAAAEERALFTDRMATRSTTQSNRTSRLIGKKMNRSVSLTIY

Turning to `Nc1ccc(N2CCCCC2)c2nonc12`, the IC50 on Caspase-3 is 36.9 µM (active); in assay [1] it was 17.1 µM (active); in assay [2] it was 10.2 µM (active); in assay [3], 1.06 µM (active); in assay [4], 79.7 µM (inactive).

For the compound `COc1ccc(NC(=O)/C(Cl)=C(/Cl)[S+]([O-])Cc2ccccc2)cn1` (stereo not drawn), the 50% effective concentration (EC50) at Wee1-like protein kinase is > 49.7 µM (not active). For the same compound, the AC50 is 1.1 µM (active) in the assay on INS1 and < 0.26 µM (active) in assay [5].

Regarding `Cc1ccc(S(=O)(=O)/N=C2\C=C(Nc3cccc(C(=O)O)c3)C(=O)c3ccccc32)c(C)c1`, the half-maximal inhibitory concentration (IC50) was 11.2 µM (active) on Caspase-3, 3.3 µM (active) in assay [1], 1.78 µM (active) in assay [2] and 2.58 µM (active) in assay [4]. Further, the AC50 in the assay on INS1 is 6.82 µM (active).
